{
  "source": "paper PMC7181660",
  "about": "“A novel specific PERK activator reduces toxicity and extends survival in Huntington's disease models” (Scientific Reports, 2020)",
  "key": {"R6/2 HD mouse model [1]": {"system": "R6/2 HD mouse model", "test": "Rotarod test", "assay_type": "in vivo, mice", "conditions": "1 mg/kg subcutaneous 28 days", "method": "Motor activity was assessed by the rotarod test (San Diego Instruments, CA, USA) (0–25 RPM). Relative slow acceleration was used to discriminate small differences between groups particularly at advanced stages of the disease. All mice were trained together before any experimental procedure was performed to set a common baseline. They were required to stay at least 2 minutes without falling in order to participate in the study. R6/2 mice and control littermates were tested every week after pump transplantation. Each test consisted of 3 consecutive measurements of 5 minutes with inter-trial recess of 5 minutes. The latency to fall was recorded and the best performance of the three trials was considered for the analysis."}, "R6/2 HD mouse model [2]": {"system": "R6/2 HD mouse model", "test": "Survival of R6/2 mice", "assay_type": "in vivo", "method": "All experimental procedures were approved by and conducted in strict compliance with the Institutional Animal Care and Use Committee of Tel Aviv University. Mice were kept in a 12/12-hour light/dark cycle with food and water ad libitum. […]. At three weeks mice were assessed for CAG repeat size using the following primer set: 5’-[…]-3′ and 5′-[…] G-3′. Following Jackson laboratories guidelines, wild type (WT) and TG littermates were kept combined in the same minimally-enriched cages (with cardboard rolls and gauze pads), and after week 8 water and mushed food were placed at the ground level for all the cages. Male mice treatment groups were coded and remained blind to the observers throughout the experiment. Power calculations determined that 16 mice per group was the minimum required to see at least a 20% increase (alpha 0.05, beta 0.2, power 80%) in motor performance and survival of R6/2 mice with MK-28 subcutaneous delivery compared to vehicle. Multiple endpoints were prospectively selected, consistent with the analyses we here report. Data collection was ended before signs of animal suffering or inability to thrive appear.\nAlzet pumps model 1004 (Alzet, USA), with a rate of 0.11 µl/hour and 28 days effective compound delivery was used. MK-28 compound was dissolved in 1:1 DMSO/PEG400 and prepared to delivery subcutaneously 6 mg/kg MK-28 for toxicity studies (n = 8) or 1 mg/kg for therapeutic evaluation in R6/2 mice (n = 72). For toxicity studies mice receiving six times the therapeutic dose of MK-28 or vehicle were weighed every two days for two consecutive weeks. […]. Alzet pumps were implanted in 4 weeks old mice and MK-28 was administered at 1 mg/kg with continuous dosing for 28 days. […]"}, "ATF4": {"system": "ATF4", "test": "ATF4 protein levels by immunoblot in STHdh^Q7/7 cells", "assay_type": "cell-based, murine", "conditions": "high MK-28 concentration", "method": "STHdh^Q7/7 and STHdh^Q111/111 cells were treated with different concentrations of MK-28. The concentration range was chosen in accordance to previous studies with A4. Cells were lysed with PBS containing 1% Triton X-100, 0.5% Sodium deoxycholate with protease and phosphatase inhibitors cocktails. Cocktail 2 and 3 (Sigma) were added to the lysis buffer for detection of phosphorylated proteins and lysates were incubated on ice for 30 minutes, then centrifuged at 16,000xg for 30 minutes a 4 °C. […] Immunoblotting, detection by ECL and quantitation was done as described previously."}, "[3]": {"test": "Pharmacokinetics and BBB penetration after single IP injection", "assay_type": "in vivo", "conditions": "mice, single IP 10 mg/kg"}, "WT MEF cells": {"system": "WT MEF cells", "test": "Rescue from tunicamycin-induced apoptosis in WT MEFs", "assay_type": "cell-based", "conditions": "Mus musculus, MEF; WT MEFs treated with Tun; read-out: IC50 for inhibition of apoptosis", "method": "STHdh^Q111/111 cells (used before[13]) or PERK+/+ or PERK−/− MEFs (kindly provided by David Ron, Univ. Cambridge) were incubated with Tun (10 μg/ml) for 48 h, which results in ER stress-induced cell death. Cells under the same conditions were incubated for the same times, together with Tun, with increasing concentrations of the different PERK modulators (0–120 μM) and the percent of apoptotic cells was measured by FACS cell cycle progression using propidium iodide (PI), considering the fraction beneath G0/G1. The relative apoptosis rate was calculated to be able to compare between compounds and experiments, where for each concentration curve the percent of apoptotic cells was considered 100 at concentration 0 of the PERK modulator, with only Tun. The graphs show the average relative apoptosis rate of at least 3 independent experiments for each compound.\nCells were washed with PBS and fixed with cold methanol. Before FACS analysis cells were washed with PBS, followed by addition of propidium iodide (PI) solution (10 μg/ml) and analysis by flow cytometry. Cells in sub-G0/G1 were counted as apoptotic/ dead."}, "EIF2AK4 (GCN2)": {"molecular_target": "EIF2AK4 (GCN2) (Homo sapiens, UniProt Q9P2K8)", "sequence (Q9P2K8 whole entry)": "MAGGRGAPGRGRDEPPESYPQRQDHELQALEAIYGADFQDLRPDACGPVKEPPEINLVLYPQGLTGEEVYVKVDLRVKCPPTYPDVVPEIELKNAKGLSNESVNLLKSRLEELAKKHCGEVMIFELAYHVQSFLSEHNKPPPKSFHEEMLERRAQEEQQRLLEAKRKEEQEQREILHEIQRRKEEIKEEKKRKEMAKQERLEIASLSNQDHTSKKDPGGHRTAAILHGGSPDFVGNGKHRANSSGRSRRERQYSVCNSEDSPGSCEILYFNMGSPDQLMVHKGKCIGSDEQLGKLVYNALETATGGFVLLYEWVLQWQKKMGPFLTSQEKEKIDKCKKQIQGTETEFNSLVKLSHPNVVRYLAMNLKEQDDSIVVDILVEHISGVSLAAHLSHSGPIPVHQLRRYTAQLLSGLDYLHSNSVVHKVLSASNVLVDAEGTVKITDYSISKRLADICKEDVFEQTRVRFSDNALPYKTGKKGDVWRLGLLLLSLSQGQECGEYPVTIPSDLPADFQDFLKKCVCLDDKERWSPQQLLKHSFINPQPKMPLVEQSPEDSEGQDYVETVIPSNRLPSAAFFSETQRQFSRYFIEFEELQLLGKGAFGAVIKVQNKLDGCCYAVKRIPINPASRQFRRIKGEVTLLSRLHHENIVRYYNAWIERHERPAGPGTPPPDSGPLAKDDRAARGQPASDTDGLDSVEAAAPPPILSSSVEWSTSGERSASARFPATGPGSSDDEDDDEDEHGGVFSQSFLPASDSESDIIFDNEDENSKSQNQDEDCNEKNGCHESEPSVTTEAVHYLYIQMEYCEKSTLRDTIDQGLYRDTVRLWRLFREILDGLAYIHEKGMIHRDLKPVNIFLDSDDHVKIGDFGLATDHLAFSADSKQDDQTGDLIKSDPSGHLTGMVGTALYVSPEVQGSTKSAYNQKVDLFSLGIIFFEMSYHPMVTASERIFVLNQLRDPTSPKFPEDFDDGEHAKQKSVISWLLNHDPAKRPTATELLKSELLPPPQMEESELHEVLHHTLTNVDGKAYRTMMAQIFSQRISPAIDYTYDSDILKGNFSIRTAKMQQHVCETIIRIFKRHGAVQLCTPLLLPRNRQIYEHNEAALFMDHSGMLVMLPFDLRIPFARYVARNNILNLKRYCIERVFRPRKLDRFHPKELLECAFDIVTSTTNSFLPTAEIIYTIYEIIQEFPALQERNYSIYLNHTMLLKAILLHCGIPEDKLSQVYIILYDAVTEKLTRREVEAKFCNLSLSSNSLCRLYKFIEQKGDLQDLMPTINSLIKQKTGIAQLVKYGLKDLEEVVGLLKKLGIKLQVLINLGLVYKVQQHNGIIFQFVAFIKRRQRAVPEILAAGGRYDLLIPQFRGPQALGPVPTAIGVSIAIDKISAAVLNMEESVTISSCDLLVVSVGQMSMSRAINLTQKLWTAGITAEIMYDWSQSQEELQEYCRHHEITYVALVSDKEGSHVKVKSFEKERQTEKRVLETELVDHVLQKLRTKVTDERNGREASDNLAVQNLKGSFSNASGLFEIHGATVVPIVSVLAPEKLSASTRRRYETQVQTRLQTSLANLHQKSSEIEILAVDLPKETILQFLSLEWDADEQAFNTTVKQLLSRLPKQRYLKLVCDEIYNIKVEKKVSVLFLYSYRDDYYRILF", "test": "In vitro HotSpot kinase assay on GCN2", "assay_type": "biochemical", "conditions": "plateau considered reached at 10 µM; read-out: EC50 of GCN2 activation", "method": "In vitro kinase assays with purified components and full kinase panel analysis was done at Reaction Biology Corp. (Malvern, PA, USA) using the HotSpot Kinase Assay. Reactions were performed for 20 min at room temp. using ^33P-ATP (Specific activity 10 μCi/μl) with 1 μM total ATP, 20 μM substrate and kinases in the nanomolar range in 20 mM Hepes (pH 7.5), 10 mM MgCl2, 1 mM EGTA, 0.02% Brij35, 0.02 mg/ml BSA, 0.1 mM Na3VO4, 2 mM DTT, 1% DMSO and other required factors depending on the assayed kinase. […]\nwas calculated from the data in Fig. 3. Note that for the calculation for GCN2, we considered […]\nSuppl. Fig. S3. Modulation of PERK by A4. A4 was tested for its effect on isolated PERK in vitro, showing a weak activating effect in the nanomolar range. (performed at Reaction Biology Corp. using the HotSpot Kinase Assay).\n(1 picture or pasted object on this page, not shown here)"}, "EIF2AK1 (HRI)": {"molecular_target": "EIF2AK1 (HRI) (Homo sapiens, UniProt Q9BQI3)", "sequence (Q9BQI3 whole entry)": "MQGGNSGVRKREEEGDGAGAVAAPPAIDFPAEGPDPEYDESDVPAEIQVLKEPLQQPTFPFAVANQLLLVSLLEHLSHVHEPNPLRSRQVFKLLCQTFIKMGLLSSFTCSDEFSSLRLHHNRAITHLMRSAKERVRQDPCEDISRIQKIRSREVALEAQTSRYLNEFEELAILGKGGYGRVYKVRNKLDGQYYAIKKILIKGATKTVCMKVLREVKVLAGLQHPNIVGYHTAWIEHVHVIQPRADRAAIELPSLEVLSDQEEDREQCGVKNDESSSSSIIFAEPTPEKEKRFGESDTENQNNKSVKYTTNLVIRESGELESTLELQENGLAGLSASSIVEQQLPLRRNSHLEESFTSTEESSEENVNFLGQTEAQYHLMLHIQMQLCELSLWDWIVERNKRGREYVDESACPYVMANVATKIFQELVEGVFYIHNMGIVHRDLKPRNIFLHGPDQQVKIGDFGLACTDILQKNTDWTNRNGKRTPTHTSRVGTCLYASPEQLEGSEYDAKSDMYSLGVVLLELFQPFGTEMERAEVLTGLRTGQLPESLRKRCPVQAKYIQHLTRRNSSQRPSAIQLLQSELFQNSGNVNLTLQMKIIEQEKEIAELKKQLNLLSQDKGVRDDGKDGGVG", "test": "In vitro HotSpot kinase assay on HRI", "assay_type": "biochemical", "method": "In vitro kinase assays with purified components and full kinase panel analysis was done at Reaction Biology Corp. (Malvern, PA, USA) using the HotSpot Kinase Assay. Reactions were performed for 20 min at room temp. using ^33P-ATP (Specific activity 10 μCi/μl) with 1 μM total ATP, 20 μM substrate and kinases in the nanomolar range in 20 mM Hepes (pH 7.5), 10 mM MgCl2, 1 mM EGTA, 0.02% Brij35, 0.02 mg/ml BSA, 0.1 mM Na3VO4, 2 mM DTT, 1% DMSO and other required factors depending on the assayed kinase."}, "PERK-P": {"system": "PERK-P", "test": "PERK phosphorylation shift by immunoblot in MEF cells", "assay_type": "cell-based", "conditions": "3 hours, Thap 2 μg/ml"}, "[4]": {"conditions": "R6/2 TG, 1 mg/kg subcutaneous 28 days"}},
  "note": "Like-named read-outs stand apart in the source and are kept apart here.",
  "data": [
    {"smiles": "CN(/N=C\\c1ccc(O)c(O)c1)c1nc(-c2ccccc2)cc(-c2ccccc2)n1", "note": "[MK-28]", "values": [
      {"measurement": "motor performance (rotarod) of TG mice vs untreated TG", "setting": "R6/2 HD mouse model [1]; R6/2 TG, week 4", "result": "significant improvements in motor performance"},
      {"measurement": "motor performance (rotarod) of WT animals", "setting": "R6/2 HD mouse model [1]; WT mice", "result": "no compromised motor performance"},
      {"measurement": "extension of median survival and death initiation", "setting": "R6/2 HD mouse model [2]; 28-day treatment in young R6/2 mice", "result": 10, "unit": "%"},
      {"measurement": "survival curve ratio (Gehan-Breslow-Wilcoxon test)", "setting": "R6/2 HD mouse model [2]; 95% CI 0.7726 to 4.611", "result": 1.887},
      {"measurement": "delay of death initiation", "setting": "R6/2 HD mouse model [2]; [4]", "result": 10, "unit": "days"},
      {"measurement": "increase of median survival compared to controls", "setting": "R6/2 HD mouse model [2]; [4]", "result": 8, "unit": "days"},
      {"measurement": "median survival", "setting": "R6/2 HD mouse model [2]; [4]", "result": 97, "unit": "days"},
      {"measurement": "increase of ATF4 protein levels", "setting": "ATF4", "result": "up to 2.5 fold"},
      {"measurement": "time of Cmax in plasma after injection", "setting": "[3]", "result": 40, "unit": "min"},
      {"measurement": "time of Cmax in the brain after injection", "setting": "[3]", "result": 40, "unit": "min"},
      {"measurement": "Kp", "setting": "[3]; mouse, brain, read-out: AUC in the brain as % of that in the plasma", "result": 0.22},
      {"measurement": "Cmax", "setting": "[3]; mouse, brain, read-out: Cmax in the brain", "result": 57, "unit": "ng/g"},
      {"measurement": "half-life", "setting": "[3]; mouse, brain, read-out: half-life in the brain", "result": 80, "unit": "min"},
      {"measurement": "Cmax", "setting": "[3]; mouse, plasma, read-out: Cmax in plasma", "result": 105, "unit": "ng/mL"},
      {"measurement": "half-life", "setting": "[3]; mouse, plasma, read-out: half-life in plasma", "result": 30, "unit": "min"},
      {"measurement": "IC50", "setting": "WT MEF cells", "result": 1700, "unit": "nM"},
      {"measurement": "EC50", "setting": "EIF2AK4 (GCN2)", "result": 3500, "unit": "nM"},
      {"measurement": "effect on EIF2AK1 (HRI) activity", "setting": "EIF2AK1 (HRI)", "result": "little or no effect"},
      {"measurement": "PERK migration shift (PERK-P)", "setting": "PERK-P", "result": "shift of part of the PERK population to a slower migration"}
    ]}
  ]
}
